Test results taken from US20250320227A1, “MACROCYCLIC OREXIN RECEPTOR AGONISTS AND USES THEREOF” (Jazz Pharmaceuticals Ireland Limited, priority 2022, published 2025).

Biological target: T1, human recombinant OX2 (hOX2) receptors expressed in CHO cells (Homo sapiens, UniProt O43614)
T1 construct: host or cells: CHO cells (hOX2-CHO)
T1 sequence (O43614 1-444): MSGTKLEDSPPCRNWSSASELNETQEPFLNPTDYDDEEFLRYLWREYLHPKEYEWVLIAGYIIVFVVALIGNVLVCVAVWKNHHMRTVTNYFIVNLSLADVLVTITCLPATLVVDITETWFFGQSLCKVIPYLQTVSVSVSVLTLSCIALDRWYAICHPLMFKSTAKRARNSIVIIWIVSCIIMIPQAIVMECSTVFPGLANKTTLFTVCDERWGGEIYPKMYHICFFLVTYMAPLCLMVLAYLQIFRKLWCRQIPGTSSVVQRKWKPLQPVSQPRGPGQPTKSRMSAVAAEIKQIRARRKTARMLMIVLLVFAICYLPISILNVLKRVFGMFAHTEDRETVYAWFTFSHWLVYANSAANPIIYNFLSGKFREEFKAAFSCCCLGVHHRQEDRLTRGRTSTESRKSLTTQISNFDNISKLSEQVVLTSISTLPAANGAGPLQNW
Assay: IP-1 accumulation assay (IP-One HTRF) in hOX2-CHO cells
Format: cell-based
Conditions: 60 min incubation at 37° C., mean of at least two independent experiments, read-out: EC50_OX2R Category
Protocol: The accumulation of Inositol-1 Monophosphate (IP-1) was measured using IP-One HTRF® Terbium cryptate based assay (Cisbio) in human recombinant OX1 (hOX1) and at OX2 (hOX2) receptors expressed in CHO cells (DiscoverX) according to the manufacturer's instructions for cells tested in suspension.
hOX1-CHO and hOX2-CHO cells were seeded into white 384-well plates at a density of 20,000 cells/well in Hank's Balanced Salt Solution (HBSS) containing 20 mM HEPES pH 7.4, 50 mM, LiCl and 0.1% and Bovine Serum Albumin (BSA).
Compounds of disclosure were tested in an 11 points concentration response curve (CRC) serially diluted in neat DMSO at 200 fold concentrations and added by Echo acoustic liquid handling (Labcyte) to the cells (0.5% DMSO final in the assay). After 60 min of incubation at 37° C. detection reagents, IP1-d2 tracer and anti-IP1-cryptate were diluted in lysis buffer according to the manufacturer's descriptions and added to the cells.
Following 60 min incubation at room temperature, time-resolved fluorescence (HTRF) was measured at 615 nm and 665 nm by Envision Multilabel reader (Perkin Elmer) and the HTRF ratio (A665/A615×10^4) was calculated.
The IP-1 accumulation response was expressed as percentage of the maximal OX-A response.
Curve fitting and EC50 estimations were carried out using a four-parameter logistic model using XLfit Software. Mean data of EC50 are calculated from at least two independent experiments performed in duplicates

| SMILES | EC50 [nM] |
| --- | --- |
| O=C1COCC2(CCN3C(=O)CCOc4ccccc4[C@H]4CC[C@H](CC4)OCC32)N1 (mixture of isomers) [Example 1, rel-(1's,3S,16′R,19′s)-8′,18′-dioxa-12′-azaspiro[morpholine-3,15′-tetracyclo[17.2.2.0^2,70.0^12,16]tricosane]-2′(7′),3′,5′-triene-5,11′-dione] | < 100 |
| O=C1COCC2(CCN3C(=O)CCCOc4ccccc4[C@H]4CC[C@H](CC4)OCC32)N1 (mixture of isomers) [Example 2, rel-(1′s,3S, 17′R,20′s)-8′,19′-dioxa-13′-azaspiro[morpholine-3, 16′-tetracyclo [18.2.2.0^2,70.0^13,17]tetracosane]-2′(7′),3′,5′-triene-5,12′-dione] | 1000 to 10000 |
| O=C1COCC2(CCN3C(=O)COc4ccccc4[C@H]4CC[C@H](CC4)OCC32)N1 (mixture of isomers) [Example 3, rel-(1′s,3S, 15′R,18′s)-8′,17′-dioxa-11′-azaspiro[morpholine-3,14′-tetracyclo[16.2.2.0^2,70.0^11,15]docosane]-2′(7′),3′,5′-triene-5,10′-dione] | 1000 to 10000 |
| O=C1COCC2(CCN3C(=O)C4(CC4)COc4ccccc4[C@H]4CC[C@H](CC4)OCC32)N1 (mixture of isomers) [Example 7, Rel-(1′s, 15'S,16′R,19′s)-dispiro[cyclopropane-1,10′-[8,18]dioxa-[12]azatetracyclo[17.2.2.0^2,70.0^12,16]tricosane-15′,3″-morpholine]-2′(7′),3′,5′-triene-5″,11′-dione] | 1000 to 10000 |
| O=C1CCOc2ccccc2[C@H]2CC[C@H](CC2)OCC2N1CCC21COCCN1 (mixture of isomers) [Example 9, Rel-(1′s,3S,16′R,19′s)-8′,18′-dioxa-12′-azaspiro[morpholine-3,15′-tetracyclo[17.2.2.0^2,70.0^12,16]tricosane]-2′,4′,6′-trien-11′-one] | > 10000 |
| O=C1COCC2(CCN3C(=O)CCOc4cccc(F)c4[C@H]4CC[C@H](CC4)OCC32)N1 (mixture of isomers) [Example 10, Rel-(1′s,3S,16′R,19′s)-3′-fluoro-8′,18′-dioxa-12′-azaspiro[morpholine-3,15′-tetracyclo[17.2.2.0^2,70.0^12,16]tricosane]-2′(7′),3′,5′-triene-5,11′-dione] | < 100 |
| O=C1COCC2(CCN3C(=O)CCOc4c(F)cc(F)cc4[C@H]4CC[C@H](CC4)OCC32)N1 (mixture of isomers) [Example 11, Rel-(1′s,3S,16′R,19′s)-4′,6′-difluoro-8′,18′-dioxa-12′-azaspiro[morpholine-3,15′-tetracyclo[17.2.2.0^2,70.0^12,16]tricosane]-2′(7′),3′,5′-triene-5,11′-dione] | 100 to 1000 |
| C[C@@H]1CC2(COCC(=O)N2)C2CO[C@H]3CC[C@H](CC3)c3ccccc3OCCCC(=O)N21 (mixture of isomers) [Example 14, (1′s,14′R,20's)-14′-methyl-8′,19′-dioxa-13′-azaspiro[morpholine-3,16′-tetracyclo[18.2.2.0^2,70.0^13,17]tetracosane]-2′(7′),3′,5′-triene-5,12′-dione] | < 100 |
| C[C@@H]1CC2(COCC(=O)N2)C2Cc3cccc(c3F)-c3ccccc3CCCC(=O)N21 (mixture of isomers) [Example 28] | 1000 to 10000 |
| C[C@@H]1CC2(COCC(=O)N2)C2Cc3cccc(c3F)-c3ccccc3CCCCC(=O)N21 (mixture of isomers) [Example 29, (14′R)-23′-fluoro-14′-methyl-13′-azaspiro[morpholine-3,16′tetracyclo-[17.3.1.0^2,70.0^13,17]tricosane]-1′(23′),2′(7′),3′,5′,19′,21′-hexaene-5,12′-dione] | > 10000 |
| C[C@@H]1CC2(COCC(=O)N2)C2Cc3cccc(c3F)-c3ccccc3OCCN(C)C(=O)N21 (mixture of isomers) [Example 30, (14′R)-23′-fluoro-11′,14′-dimethyl-8′-oxa-11′,13′-diazaspiro[morpholine-3,16′-tetracyclo[17.3.1.0^2,70.0^13,17]tricosane]-1′(23′),2′(7′),3′,5′,19′,21′-hexaene-5,12′-dione] | 1000 to 10000 |
| C[C@@H]1CC2(COCC(=O)N2)C2Cc3cccc(c3F)-c3ccccc3OCCCN(C)C(=O)N21 (mixture of isomers) [Example 31, (15′R)-24′-fluoro-12′, 15′-dimethyl-8′-oxa-12′, 14′-diazaspiro[morpholine-3,17′-tetracyclo[18.3.1.0^2,70.0^14,18]tetracosane]-1′(24′),2′(7′),3′,5′,20′,22′-hexaene-5,13′-dione] | > 10000 |
| O=C1COCC2(CCCN3C(=O)CCOc4ccc(F)cc4[C@H]4CC[C@H](CC4)OCC32)N1 (mixture of isomers) [Example 49, Rel-(1′s,3S,17′R,20′s)-4′-fluoro-8′,19′-dioxa-12′-azaspiro[morpholine-3,16′-tetracyclo[18.2.2. 0^2,^7.0^12,^17]tetracosane]-2′(7′),3′,5′-triene-5,11′-dione] | < 100 |
| O=C1COCC2(CCCN3C(=O)CCOc4cccnc4[C@H]4CC[C@H](CC4)OCC32)N1 (mixture of isomers) [Example 51, Rel-(1′s,3S,17′R,20′s)-8′,19′-dioxa-3′,12′-diazaspiro [morpholine-3,16′-tetracyclo[18.2.2. 0^2,^7.0^12,^17]tetracosane]-2′(7′),3′,5′-triene-5,11′-dione] | > 10000 |
| O=C1COCC2(CCCN3C(=O)OCCc4ccccc4[C@H]4CC[C@H](CC4)OCC32)N1 (mixture of isomers) [Example 52, Rel-(1′s,3S,17′R,20's)-10′,19′-dioxa-12′-azaspiro[morpholine-3,16′-tetracyclo [18.2.2.0^2,70.0^12,17]tetracosane]-2′(7′), 3′,5′-triene-5,11′-dione] | 1000 to 10000 |
| O=C1COCC2(CCCN3C(=O)OCCOc4cccc(c4)[C@H]4CC[C@H](CC4)OCC32)N1 (mixture of isomers) [Example 53, Rel-(1′s,3S,17′R,20's)-7′,10′,19′-trioxa-12′-azaspiro[morpholine-3,16′-tetracyclo[18.2.2.1^2,60.0^12,17]pentacosane]-2′(25′),3′,5′-triene-5,11′-dione] | < 100 |
| O=C1COCC2(CCCN3C(=O)OCCCOc4cccc(c4)[C@H]4CC[C@H](CC4)OCC32)N1 (mixture of isomers) [Example 54, Rel-(1′s,3S,18′R,21′s)-7′,11′,20′-trioxa-13′-azaspiro[morpholine-3,17′-tetracyclo[19.2.2.1^2,60.0^13,18]hexacosane]-2′(26′),3′,5′-triene-5,12′-dione] | < 100 |
| O=C1NC2(CCCN3C(=O)COc4ccccc4[C@H]4CC[C@H](CC4)OCC32)CCO1 (mixture of isomers) [Example 57, Rel-(1′s,4R,16′R,19′s)-8′,18′-dioxa-11′-azaspiro[1,3-oxazinane-4,15′-tetracyclo[17.2.2.0^2,70.0^11,16]tricosane]-2′(7′),3′,5′-triene-2,10′-dione] | < 100 |
| O=C1CCCC2(CCCN3C(=O)COc4ccccc4[C@H]4CC[C@H](CC4)OCC32)N1 (mixture of isomers) [Example 58, Rel-(1′s,2S,16′R,19′s)-8′,18′-dioxa-11′-azaspiro[piperidine-2,15′-tetracyclo-[17.2.2.0^2,70.0^11,16]tricosane]-2′(7′),3′,5′-triene-6,10′-dione] | < 100 |
| O=C1COc2ccccc2[C@H]2CC[C@H](CC2)OCC2N1CCCC21CCCS(=O)(=O)N1 (mixture of isomers) [Example 59, Rel-(1s, 15R,16R,19s)-8,18-dioxa-11-azaspiro[tetracyclo[17.2.2.0^2,70.0^11,16]tricosane-15,3′-[1λ^6,2]thiazinane]-2 (7),3,5-triene-1′,1′,10-trione] | < 100 |
| O=C1COCC2(CCCN3C(=O)CCCOc4ccccc4-c4cccc(c4F)CC32)N1 (racemic) [Example 61, Rel-(3S,18′S)-24′-fluoro-8′-oxa-13′-azaspiro[morpholine-3,17′-tetracyclo[18.3.1.0^2,70.0^13,18]tetracosane]-1′(24′),2′(7′), 3′,5′,20′,22′-hexaene-5,12′-dione] | 1000 to 10000 |
| O=C1COCC2(CCCN3C(=O)CCCCc4ccccc4-c4cccc(c4F)CC32)N1 (racemic) [Example 62, Rel-(3S, 18′S)-24′-fluoro-13′-azaspiro[morpholine-3,17′-tetracyclo[18.3.1.0^2,70.0^13,18]tetracosane]-1′(24′),2′(7′),3′,5′,20′,22′-hexaene-5,12′-dione] | > 10000 |
| CN1CCOc2ccccc2-c2cccc(c2F)CC2N(CCCC23COCC(=O)N3)C1=O (racemic) [Example 63, Rel-(3S,18′S)-24′-fluoro-11′-methyl-8′-oxa-11′,13′-diazaspiro[morpholine-3,17′-tetracyclo[18.3.1.0^2,70.0^13,18]tetracosane]-1′(24′),2′(7′),3′,5′,20′,22′-hexaene-5,12′-dione] | 1000 to 10000 |
